Experiment [1] has as its target T1, BCL6 (Homo sapiens (Human), UniProt P41182). In words: BCL6 TR-FRET assay (BCL6-Avitag-Biotin / BCoR-Cy5 peptide). Particulars: class symbols A-D; read-out: IC50 (nM)***. The experiment is classed as binding. In a few lines: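 After 30 min room-temperature preincubation of compound titrations with 2 nM biotinylated BCL6-Avitag, 100 nM Cy5-labelled BCoR peptide plus 2 nM Eu-streptavidin were added and TR-FRET read 2 h later. HEPES pH 7.5/125 mM NaCl buffer with Triton X, glutathione (or DTT) and BSA.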
Background: Time-resolved FRET reads energy transfer from a long-lived donor to a nearby acceptor.

Experiment [2] has as its target T1, BCL6. In words: Immunofluorescence high content imaging of BCL6 degradation in T47D cells. The experiment is classed as cell-based. As to conditions: for Dmax: T47D, maximum, class symbols A-C; for DC50: class symbols A-D, read-out: EC50 (nM)*. The method in brief: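 Read-out is BCL6 immunofluorescence quantified by high-content imaging (10×, 4 fields per well) of T47D breast cancer cells. Cells were exposed for 3 days to degrader in an 11-point, 3-fold serial dilution reaching a final top concentration of 0.1 or 1 μM.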

Where only a bound is given, the exact number is not on record here.

Consider `CC(=O)COc1cc2cc(Nc3nc(N4CCN(C(=O)C5CCN(c6ccc7c(c6)C(=O)N(C6CCC(=O)NC6=O)C7=O)CC5)CC4)ncc3Cl)ccc2n(C)c1=O` (stereo not drawn) [compound 163, 5-(4-(4-(5-chloro-4-((1-methyl-2-oxo-3-(2-oxopropoxy)-1,2-dihydroquinolin-6-yl)amino)pyrimidin-2-yl)piperazine-1-carbonyl)piperidin-1-yl)-2-(2,6-dioxopiperidin-3-yl)isoindoline-1,3-dione], for which the IC50 (commonly the midpoint of a concentration-inhibition curve) at BCL6 [1] is 10 to 50 nM. Further, on BCL6 [2], the maximal degradation (Dmax) (commonly the largest share of the target that was removed) lay in the range of 50 to 70% and the DC50 is 10 to 50 nM.

Consider `CC(=O)COc1cc2cc(Nc3nc(N4CCC(CCOC5CN(c6ccc7c(c6)C(=O)N(C6CCC(=O)NC6=O)C7=O)C5)CC4)ncc3Cl)ccc2n(C)c1=O` (stereo not drawn) [compound 164, 5-(3-(2-(1-(5-chloro-4-((1-methyl-2-oxo-3-(2-oxopropoxy)-1,2-dihydroquinolin-6-yl)amino)pyrimidin-2-yl)piperidin-4-yl)ethoxy)azetidin-1-yl)-2-(2,6-dioxopiperidin-3-yl)isoindoline-1,3-dione], for which the IC50 at BCL6 [1] was in the range of 10 to 50 nM. Moreover, on BCL6 [2], the greatest degradation seen (Dmax) is under 50% and the DC50 was over 100 nM.

Consider `CC(=O)COc1cc2cc(Nc3nc(N4CCC(CN5CC6(C5)CN(c5ccc7c(c5)C(=O)N(C5CCC(=O)NC5=O)C7=O)C6)CC4)ncc3Cl)ccc2n(C)c1=O` (stereo not drawn) [compound 165, 5-(6-((1-(5-chloro-4-((1-methyl-2-oxo-3-(2-oxopropoxy)-1,2-dihydroquinolin-6-yl)amino)pyrimidin-2-yl)piperidin-4-yl)methyl)-2,6-diazaspiro[3.3]heptan-2-yl)-2-(2,6-dioxopiperidin-3-yl)isoindoline-1,3-dione], for which the IC50 at BCL6 [1] fell in the range of 10 to 50 nM. On BCL6 [2], the Dmax lay within 50 to 70% and the DC50 fell in the range of 10 to 50 nM.

In the case of `CN(C)C(=O)COc1cc2cc(Nc3nc(N4CCC(CN5CCN(c6ccc7c(c6)C(=O)N(C6CCC(=O)NC6=O)C7=O)CC5)CC4)ncc3Cl)ccc2n(C)c1=O` (stereo not drawn) [compound 166, 2-((6-((5-chloro-2-(4-((4-(2-(2,6-dioxopiperidin-3-yl)-1,3-dioxoisoindolin-5-yl)piperazin-1-yl)methyl)piperidin-1-yl)pyrimidin-4-yl)amino)-1-methyl-2-oxo-1,2-dihydroquinolin-3-yl)oxy)-N,N-dimethylacetamide], the half-maximal inhibitory concentration (IC50) on BCL6 [1] was 50 to 100 nM. For the same compound, at BCL6 [2], the Dmax is under 50% and the DC50 was over 100 nM.

Take `CNC(=O)COc1cc2cc(Nc3nc(N4CCCC(COc5ccc(C6CCN(CC#Cc7ccc8c(c7)CN(C7CCC(=O)NC7=O)C8=O)CC6)cc5)C4)ncc3Cl)ccc2n(C)c1=O` (stereo not drawn) [compound 167, 2-((6-((5-chloro-2-(3-((4-(1-(3-(2-(2,6-dioxopiperidin-3-yl)-1-oxoisoindolin-5-yl)prop-2-yn-1-yl)piperidin-4-yl)phenoxy)methyl)piperidin-1-yl)pyrimidin-4-yl)amino)-1-methyl-2-oxo-1,2-dihydroquinolin-3-yl)oxy)-N-methylacetamide]: the IC50 at BCL6 [1] is 10 to 50 nM. On BCL6 [2], the Dmax is under 50% and the DC50 was over 100 nM.

Consider `CNC(=O)COc1cc2cc(Nc3nc(N4CCC(OCCOCCOCCOCCCOc5ccc6c(c5)CN(C5CCC(=O)NC5=O)C6=O)CC4)ncc3Cl)ccc2n(C)c1=O` (stereo not drawn) [compound 168, 2-((6-((5-chloro-2-(4-(2-(2-(2-(3-((2-(2,6-dioxopiperidin-3-yl)-1-oxoisoindolin-5-yl)oxy)propoxy)ethoxy)ethoxy)ethoxy)piperidin-1-yl)pyrimidin-4-yl)amino)-1-methyl-2-oxo-1,2-dihydroquinolin-3-yl)oxy)-N-methylacetamide], for which, at BCL6 [1], the IC50 lay in the range of 10 to 50 nM. At BCL6 [2], the greatest degradation seen (Dmax) lay in the range of 50 to 70% and the DC50 is over 100 nM.

Values taken from patent US12310975B2, “Modulators of BCL6 proteolysis and associated methods of use” (Arvinas Operations, Inc., priority 2019, dated 2025).
